# Measurements published in paper PMC9742639, “Inhibition of glycogen synthase kinase-3-beta (GSK3β) blocks nucleocapsid phosphorylation and SARS-CoV-2 replication” (Molecular Biomedicine, 2022).
# Experiments:
# [1] = tested on: SARS-CoV-2 variant BA.1 (omicron); format: cell-based
# [2] = tested on: SARS-CoV-2 variant B.1.617.2 (delta); format: cell-based
smiles,measurement,setting,value
CSc1ccc(-n2cnc3ccc(-c4nnc(CCc5cccc(C#N)c5)o4)cc32)cc1 [P-0717632],"effect on viral titres, BA.1",[1],reduced intracellular viral titres
same,"effect on viral titres, B.1.617.2",[2],reduced intracellular viral titres
